# pIC50: −log10 of the molar value.
# Assays:
# [1] = Drug metabolism in human liver microsomes assessed as metabolite M+16 (V) formation at 5 uM after 60 mins by UPLC-MS analysis; assay type: ADME, microsome; conditions: 1 h
# [2] = Drug metabolism in rat liver microsomes assessed as mono-oxygenation and dehydrogenation metabolite formation at 5 uM after 60 mins by UPLC-MS analysis; assay type: ADME, microsome; conditions: 1 h
# [3] = AUC (0 to t) in humanized NOD.Cg-Prkdcscid Il2rgtm1Wjl/SzJ mouse infected with Plasmodium falciparum Pf3D70087/N9 at 30 mg/kg, po administered as single dose by LC-MS/MS analysis; assay type: ADME, organism-based; conditions: in vivo
# [4] = Metabolic stability in rat blood after 2 to 4 hrs by LC-MS method; assay type: ADME, tissue-based
# [5] = Drug metabolism in mouse liver microsomes assessed as mono-oxygenation and dehydrogenation metabolite formation at 5 uM after 60 mins by UPLC-MS analysis; assay type: ADME, microsome; conditions: 1 h
# [6] = Drug metabolism in mouse liver microsomes assessed as metabolite M+16 (IV) formation at 5 uM after 60 mins by UPLC-MS analysis; assay type: ADME, microsome; conditions: 1 h
# [7] = Intrinsic clearance in rat liver microsomes assessed per mg protein at 5 uM by UPLC-MS analysis; assay type: ADME, microsome; conditions: read-out: CLH
# [8] = Drug metabolism in mouse liver microsomes assessed as bis-oxygenation and dehydrogenation metabolite formation at 5 uM after 60 mins by UPLC-MS analysis; assay type: ADME, microsome; conditions: 1 h
# [9] = AUC (0 to t) in humanized NOD.Cg-Prkdcscid Il2rgtm1Wjl/SzJ mouse infected with Plasmodium falciparum Pf3D70087/N9 at 100 mg/kg, po administered as single dose by LC-MS/MS analysis; assay type: ADME, organism-based; conditions: in vivo
# Mus musculus [10] = assay: Dose normalized Cmax in humanized NOD.Cg-Prkdcscid Il2rgtm1Wjl/SzJ mouse infected with Plasmodium falciparum Pf3D70087/N9 at 30 mg/kg, po administered as single dose after 0.25 to 23 hrs by LC-MS/MS analysis; assay type: ADME, organism-based; conditions: in vivo
# [11] = Drug metabolism in human liver microsomes assessed as ring dehydrogenated metabolite formation at 5 uM after 60 mins by UPLC-MS analysis; assay type: ADME, microsome; conditions: 1 h
# [12] = Intrinsic clearance in human liver microsomes assessed per mg protein at 5 uM by UPLC-MS analysis; assay type: ADME, microsome; conditions: read-out: CLH
# Mus musculus [13] = assay: Dose normalized AUC (0 to t) in humanized NOD.Cg-Prkdcscid Il2rgtm1Wjl/SzJ mouse infected with Plasmodium falciparum Pf3D70087/N9 at 15 mg/kg, po administered as single dose by LC-MS/MS analysis; assay type: ADME, organism-based; conditions: in vivo
# [14] = Drug metabolism in mouse liver microsomes at 5 uM after 60 mins by UPLC-MS analysis; assay type: ADME, microsome; conditions: read-out: Drug metabolism
# [15] = Drug metabolism in rat liver microsomes assessed as deaminated morpholine acid metabolite formation at 5 uM after 60 mins by UPLC-MS analysis; assay type: ADME, microsome; conditions: 1 h
# [16] = Drug metabolism in human liver microsomes assessed as cleaved morpholine ring metabolite formation at 5 uM after 60 mins by UPLC-MS analysis; assay type: ADME, microsome; conditions: 1 h
# Mus musculus [17] = assay: Dose normalized AUC (0 to t) in humanized NOD.Cg-Prkdcscid Il2rgtm1Wjl/SzJ mouse infected with Plasmodium falciparum Pf3D70087/N9 at 5 mg/kg, po administered as single dose by LC-MS/MS analysis; assay type: ADME, organism-based; conditions: in vivo
# Mus musculus [18] = assay: Dose normalized Cmax in humanized NOD.Cg-Prkdcscid Il2rgtm1Wjl/SzJ mouse infected with Plasmodium falciparum Pf3D70087/N9 at 15 mg/kg, po administered as single dose after 0.25 to 23 hrs by LC-MS/MS analysis; assay type: ADME, organism-based; conditions: in vivo
# [19] = Drug metabolism in human liver microsomes assessed as morpholine dealkylated metabolite formation at 5 uM after 60 mins by UPLC-MS analysis; assay type: ADME, microsome; conditions: 1 h
# [20] = Drug metabolism in human liver microsomes assessed as metabolite M+32 (II) formation at 5 uM after 60 mins by UPLC-MS analysis; assay type: ADME, microsome; conditions: 1 h
# [21] = Drug metabolism in human liver microsomes assessed as mono-oxygenation and dehydrogenation metabolite formation at 5 uM after 60 mins by UPLC-MS analysis; assay type: ADME, microsome; conditions: 1 h
# Plasmodium berghei [22] = assay: Antimalarial activity against Plasmodium berghei infected in mouse assessed as reduction in parasitemia at 30 mg/kg, po administered as single dose measured on day 3 relative to control; assay type: functional; parameters: scale not given: the % may be the effect or the level left
# [23] = AUC (0 to t) in humanized NOD.Cg-Prkdcscid Il2rgtm1Wjl/SzJ mouse infected with Plasmodium falciparum Pf3D70087/N9 at 5 mg/kg, po administered as single dose by LC-MS/MS analysis; assay type: ADME, organism-based; conditions: in vivo
# Cytochrome P450 3A4 = Cytochrome P450 3A4 (Homo sapiens, UniProt P08684); assay: Inhibition of CYP3A4 in human liver microsomes assessed as testosterone 6beta-hydroxylation after 4 to 40 mins in presence of NADPH by LCMS analysis; assay type: ADME
# Chain of Cytochrome P450 3A4 (P08684 whole entry): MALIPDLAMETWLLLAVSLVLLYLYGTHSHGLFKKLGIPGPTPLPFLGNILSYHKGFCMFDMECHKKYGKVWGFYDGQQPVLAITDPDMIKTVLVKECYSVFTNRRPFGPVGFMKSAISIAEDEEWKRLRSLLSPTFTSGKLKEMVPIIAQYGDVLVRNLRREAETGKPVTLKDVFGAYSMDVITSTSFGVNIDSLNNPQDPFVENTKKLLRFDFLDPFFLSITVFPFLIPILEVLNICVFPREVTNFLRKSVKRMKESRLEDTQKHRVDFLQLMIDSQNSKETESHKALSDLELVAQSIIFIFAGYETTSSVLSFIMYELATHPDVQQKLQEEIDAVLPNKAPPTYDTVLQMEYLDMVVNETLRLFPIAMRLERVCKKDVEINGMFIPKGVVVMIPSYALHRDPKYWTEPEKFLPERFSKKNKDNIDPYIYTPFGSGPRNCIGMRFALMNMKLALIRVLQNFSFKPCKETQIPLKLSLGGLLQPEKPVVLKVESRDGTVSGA
# [24] = Drug metabolism in human liver microsomes assessed as deaminated morpholine metabolite formation at 5 uM after 60 mins by UPLC-MS analysis; assay type: ADME, microsome; conditions: 1 h
# [25] = Drug degradation in rat liver microsomes assessed as compound half life at 1 uM by UPLC-MS method; assay type: ADME, microsome
# [26] = Drug metabolism in human liver microsomes assessed as bis-oxygenation and dehydrogenation metabolite formation at 5 uM after 60 mins by UPLC-MS analysis; assay type: ADME, microsome; conditions: 1 h
# Plasmodium falciparum = assay: Antimalarial activity against Plasmodium falciparum Pf3D70087/N9 infected in po dosed humanized NOD.Cg-Prkdcscid Il2rgtm1Wjl/SzJ mouse assessed as reduction in parasitemia administered as single dose measured on day 7 post infection by SYTO-16 dye-based flow cytometric analysis; assay type: functional; conditions: 168 h
# Plasmodium berghei [27] = assay: Antimalarial activity against Plasmodium berghei infected in mouse assessed as mouse mean survival days at 30 mg/kg, po administered as single dose; assay type: functional
# [28] = Drug metabolism in rat liver microsomes assessed as metabolite M+32 (IV) formation at 5 uM after 60 mins by UPLC-MS analysis; assay type: ADME, microsome; conditions: 1 h
# [29] = Drug metabolism in rat liver microsomes assessed as bis-oxygenation and dehydrogenation metabolite formation at 5 uM after 60 mins by UPLC-MS analysis; assay type: ADME, microsome; conditions: 1 h
# [30] = Drug metabolism in human liver microsomes assessed as deaminated morpholine acid metabolite formation at 5 uM after 60 mins by UPLC-MS analysis; assay type: ADME, microsome; conditions: 1 h
# [31] = Drug metabolism in mouse liver microsomes assessed as deaminated morpholine acid metabolite formation at 5 uM after 60 mins by UPLC-MS analysis; assay type: ADME, microsome; conditions: 1 h
# [32] = Drug metabolism in human liver microsomes assessed as metabolite M+16 (IV) formation at 5 uM after 60 mins by UPLC-MS analysis; assay type: ADME, microsome; conditions: 1 h
# [33] = Drug metabolism in rat liver microsomes assessed as metabolite M+32 (II) formation at 5 uM after 60 mins by UPLC-MS analysis; assay type: ADME, microsome; conditions: 1 h
# [34] = Drug metabolism in rat liver microsomes assessed as morpholine dealkylated metabolite formation at 5 uM after 60 mins by UPLC-MS analysis; assay type: ADME, microsome; conditions: 1 h
# [35] = Intrinsic clearance in mouse liver microsomes assessed per mg protein at 5 uM by UPLC-MS analysis; assay type: ADME, microsome; conditions: read-out: CLH
# [36] = Drug degradation in rat liver microsomes assessed as compound half life at 5 uM by UPLC-MS method; assay type: ADME, microsome
# [37] = Tmax in humanized NOD.Cg-Prkdcscid Il2rgtm1Wjl/SzJ mouse infected with Plasmodium falciparum Pf3D70087/N9 at 15 mg/kg, po administered as single dose by LC-MS/MS analysis; assay type: ADME, organism-based; conditions: in vivo
compound,measurement,setting,value
c1cc(C2CCC3(CC2)OOC2(OO3)C3CC4CC(C3)CC2C4)ccc1CN1CCOCC1 (centres undefined),Drug metabolism,[1],Metabolite_Detected
same,Drug metabolism,[2],Metabolite_Notdetected
same,AUC(0-t),[3],0.94 µg·h/mL
same,Stability,[4],Stable
same,Drug metabolism,[5],Metabolite_Notdetected
same,Drug metabolism,[6],Metabolite_Detected
same,microsomal CLint at 5 µM,[7],89 µL/min/mg
same,Drug metabolism,[8],Metabolite_Notdetected
same,AUC(0-t),[9],2.32 µg·h/mL
same,Cmax/dose,Mus musculus [10],0.0049 µg/mL/mg/kg
same,Drug metabolism,[11],Metabolite_Notdetected
same,microsomal CLint at 5 µM,[12],41 µL/min/mg
same,AUCt/dose,Mus musculus [13],0.0499 µg·h/mL/mg/kg
same,"metabolised at 1 h, 5 µM",[14],39%
same,Drug metabolism,[15],Metabolite_Notdetected
same,Drug metabolism,[16],Metabolite_Notdetected
same,AUCt/dose,Mus musculus [17],0.256 µg·h/mL/mg/kg
same,Cmax/dose,Mus musculus [18],0.0099 µg/mL/mg/kg
same,Drug metabolism,[19],Metabolite_Notdetected
same,Drug metabolism,[20],Metabolite_Notdetected
same,Drug metabolism,[21],Metabolite_Notdetected
same,Activity,Plasmodium berghei [22],99.42%
same,AUC(0-t),[23],1.28 µg·h/mL
same,pIC50,Cytochrome P450 3A4,< 4.70
same,Drug metabolism,[24],Metabolite_Notdetected
same,half-life at 1 µM,[25],15 min
same,Drug metabolism,[26],Metabolite_Notdetected
same,ED90,Plasmodium falciparum,8.6 mg/kg
same,MSD,Plasmodium berghei [27],26.3 days
same,Drug metabolism,[28],Metabolite_Detected
same,Drug metabolism,[29],Metabolite_Notdetected
same,Drug metabolism,[30],Metabolite_Notdetected
same,Drug metabolism,[31],Metabolite_Notdetected
same,Drug metabolism,[32],Metabolite_Notdetected
same,Drug metabolism,[33],Metabolite_Notdetected
same,Drug metabolism,[34],Metabolite_Notdetected
same,microsomal CLint at 5 µM,[35],20 µL/min/mg
same,half-life at 5 µM,[36],20 min
same,Tmax,[37],60 min
